Assay results taken from ChEMBL document CHEMBL5143655, “Synthesis and biological evaluation of 1,2,4-triazole derivatives as potential Nrf2 activators for the treatment of cerebral ischemic injury” (Eur J Med Chem, 2022).
Calls of active or inactive are those of the source. The rule behind the calls is not given here.

Key:
[1] = Plasma protein binding in human plasma at 10 uM incubated for 6 hrs by LC-MS/MS based equilibrium dialysis method; type: ADME, cell-free; conditions: read-out: PPB (converted)
[2] = Cytotoxicity against human HaCaT cells assessed as reduction in cell viability by MTT assay; type: toxicity, cell-based
PC-12 [3] = experiment: Neuroprotective activity against SNP induced rat PC-12 cells assessed as increase in cell viability at 10 uM preincubated for 2 hrs followed by SNP stimulation for 24 hrs by MTT assay relative to control; type: functional
PC-12 [4] = experiment: Neuroprotective activity against SNP induced rat PC-12 cells assessed as increase in cell viability at 1 uM preincubated for 2 hrs followed by SNP stimulation for 24 hrs by MTT assay relative to control; type: functional
[5] = Metabolic stability in human plasma assessed as parent compound remaining at 200 uM measured after 120 min by LC-MS/MS analysis relative to control; type: ADME, cell-free; conditions: read-out: Stability
[6] = Tmax in Sprague-Dawley rat at 5 mg/kg, ip measured upto 24 hrs by LC-MS/MS analysis; type: ADME, organism-based; conditions: in vivo
[7] = Bioavailability in Sprague-Dawley rat at 5 mg/kg, ip measured upto 24 hrs by LC-MS/MS analysis; type: ADME, organism-based; conditions: in vivo
[8] = MRT in Sprague-Dawley rat at 5 mg/kg, ip measured upto 24 hrs by LC-MS/MS analysis; type: ADME, organism-based; conditions: in vivo
[9] = MRT in Sprague-Dawley rat at 5 mg/kg, iv measured upto 24 hrs by LC-MS/MS analysis; type: ADME, organism-based; conditions: in vivo
[10] = Half life in Sprague-Dawley rat at 5 mg/kg, iv measured upto 24 hrs by LC-MS/MS analysis; type: ADME, organism-based; conditions: in vivo
[11] = Clearence in Sprague-Dawley rat at 5 mg/kg, ip measured upto 24 hrs by LC-MS/MS analysis; type: ADME, organism-based; conditions: in vivo
[12] = Clearence in Sprague-Dawley rat at 5 mg/kg, iv measured upto 24 hrs by LC-MS/MS analysis; type: ADME, organism-based; conditions: in vivo
Rattus norvegicus [13] = experiment: Neuroprotective activity in Sprague-Dawley rat model of middle cerebral artery occlusion-induced ischemia-reperfusion injury assessed as attenuation of behavioral deficit at 10 mg/kg, ip preincubated for 1 hrs followed by MCAO operation and further incubated with compound for 4 hrs after reperfusion; type: functional; conditions: time 5 hrs
Rattus norvegicus [14] = experiment: Neuroprotective activity in Sprague-Dawley rat model of middle cerebral artery occlusion-induced ischemia-reperfusion injury assessed as decrease in cerebral infarct volume at 3 mg/kg, ip preincubated for 1 hrs followed by MCAO operation and further incubated with compound for 4 hrs after reperfusion by TTC staining based assay; type: functional; design: scale not given: the % may be the effect or the level left; conditions: time 5 hrs
Rattus norvegicus [15] = experiment: Neuroprotective activity in Sprague-Dawley rat model of middle cerebral artery occlusion-induced ischemia reperfusion injury assessed as increase in serum SOD level at 3 to 30 mg/kg, ip preincubated for 1 hrs followed by MCAO operation and further incubated with compound for 4 hrs after reperfusion; type: functional, organism-based; conditions: dose 3-30 mg/kg, time 5.0 hrs
PC-12 [16] = experiment: Neuroprotective activity against SNP-induced apoptotic rat PC-12 cells assessed as restoration of cell number at 10 uM preincubated for 2 hrs followed by SNP stimulation for 24 hrs by Hoechst 33258 staining based fluorescence microscopic analysis; type: functional
PC-12 [17] = experiment: Cytoprotective activity against SNP - induced oxidative stress in rat PC-12 cells assessed as restoration of mitochondrial membrane potential at 10 uM preincubated for 2 hrs followed by SNP stimulation for 24 hrs by JC-1 staining based fluorescence microscopic analysis; type: functional, cell-based
[18] = molecular target: T1, Nuclear factor erythroid 2-related factor 2 (Rattus norvegicus) (UniProt O54968); experiment: Activation of Nrf2 pathway in rat PC-12 cells assessed as increase in NQO1 level at 2.5 to 10 uM measured after 3 hrs by Western blot analysis; type: cell-based; conditions: filed as activator, dose 2.5-10 µM
T1 sequence (whole entry): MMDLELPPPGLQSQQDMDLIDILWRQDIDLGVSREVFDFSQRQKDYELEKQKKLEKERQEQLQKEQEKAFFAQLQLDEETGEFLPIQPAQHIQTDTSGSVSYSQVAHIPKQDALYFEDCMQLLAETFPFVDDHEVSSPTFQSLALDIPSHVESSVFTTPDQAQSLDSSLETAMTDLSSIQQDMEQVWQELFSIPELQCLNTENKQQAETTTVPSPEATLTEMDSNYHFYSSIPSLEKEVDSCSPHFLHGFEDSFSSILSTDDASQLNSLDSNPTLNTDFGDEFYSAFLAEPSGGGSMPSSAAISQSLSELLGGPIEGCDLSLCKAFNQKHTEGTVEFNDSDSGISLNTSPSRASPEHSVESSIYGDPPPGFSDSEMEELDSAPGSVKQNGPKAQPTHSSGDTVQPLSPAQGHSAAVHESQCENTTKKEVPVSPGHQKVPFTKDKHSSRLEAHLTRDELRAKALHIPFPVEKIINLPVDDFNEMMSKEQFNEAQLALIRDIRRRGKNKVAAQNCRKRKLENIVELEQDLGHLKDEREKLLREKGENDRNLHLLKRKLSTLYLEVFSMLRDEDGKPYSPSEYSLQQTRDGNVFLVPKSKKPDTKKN

[19] = Acute toxicity in ip dosed BALB/c mouse assessed as lethal dose measured after 7 days; type: organism-based; conditions: in vivo, time 7 day
[20] = molecular target: T1, Nuclear factor erythroid 2-related factor 2 (Rattus norvegicus); experiment: Activation of Nrf2 pathway in rat PC-12 cells assessed as decrease in Nrf2 accumulation in cytoplasm at 0.5 to 10 uM measured after 3 hrs by Western blot analysis; type: cell-based; conditions: filed as activator, dose 0.5-10 µM

Cc1cc(C)cc(-n2nc(-c3ccc(C(F)(F)F)cc3O)nc2-c2ccccc2O)c1
fraction unbound at 6 h, 10 µM [1]: 0.0006 | IC50 [2]: 127 µM | Activity (PC-12 [3]): 105.13% | Activity (PC-12 [4]): 76.86% | remaining at 2 h, 200 µM [5]: 88.9% | Tmax [6]: 2 h | bioavailability [7]: 28.8% | MRT [8]: 16.5 h | MRT [9]: 2.84 h | half-life [10]: 8.26 h | CL [11]: 0.0017 (mg/kg)/(ng/ml)/hr | CL [12]: 0.0005 (mg/kg)/(ng/ml)/hr | Activity (Rattus norvegicus [13]): 1.6 | Activity (Rattus norvegicus [14]): 16.37% | Activity (Rattus norvegicus [15]): Active | Activity (PC-12 [16]): Active | Activity (PC-12 [17]): Active | Activity [18]: Active | LD50 at 168 h [19]: 789 mg/kg | Activity [20]: Active
